Source: article PMC8887546, “Design and Synthesis of Brain Penetrant Glycopeptide Analogues of PACAP With Neuroprotective Potential for Traumatic Brain Injury and Parkinsonism” (Frontiers in drug discovery, 2022)

Tests used:
human VPAC2 receptor = biological target: T1, human VPAC2 receptor (Homo sapiens, UniProt P41587); assay: cAMP stimulation in CHO cells expressing VPAC2; type: cell-based
T1 construct: expressed in transfected cells; host or cells: CHO cells (G418 selection)
T1 sequence (P41587 24-438): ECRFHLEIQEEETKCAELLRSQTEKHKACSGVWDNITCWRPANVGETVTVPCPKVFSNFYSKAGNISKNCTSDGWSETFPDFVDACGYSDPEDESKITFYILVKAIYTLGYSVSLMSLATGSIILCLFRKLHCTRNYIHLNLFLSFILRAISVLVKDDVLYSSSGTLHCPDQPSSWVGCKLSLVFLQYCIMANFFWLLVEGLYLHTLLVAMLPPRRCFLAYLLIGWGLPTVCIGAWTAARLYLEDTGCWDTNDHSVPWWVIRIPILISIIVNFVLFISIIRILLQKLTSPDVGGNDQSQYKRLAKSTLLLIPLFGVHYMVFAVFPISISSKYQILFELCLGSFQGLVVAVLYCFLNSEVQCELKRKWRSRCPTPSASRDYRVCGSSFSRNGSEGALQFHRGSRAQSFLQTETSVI
Outline: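 Serum-starved CHO cells expressing human receptors were pre-treated 20 min with 500 μM IBMX, then exposed to agonist concentration curves for 10 min in 500 μM IBMX. cAMP quantified by competition with bovine PKA and ^3H-cAMP (1 h, room temperature), scintillation read.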

[1] = system: Sprague Dawley rats, 6-OHDA lesion; assay: Amphetamine-induced rotations, mild 6-OHDA hemi-parkinsonian rat model (study 1); type: in vivo; conditions: mild lesion (25%), 15 mg/kg i.p. 6 h prior to and 24 h post-lesion, 2 + 4 weeks, vs vehicle
Experimental: Rats were treated with 2LS98Lac or saline (vehicle) as outlined in the Schemes in Figures 9A,B via intraperitoneal (i.p.) injection (15 mg/kg). All animals were made hemi-parkinsonian with unilateral, striatal 6-hydroxydopamine (Sigma Aldrich, St. Louis, MO) injections. After surgery, behavioral assessments were done at 2- and 4-weeks post-surgery. 24 h after the last test animals were either euthanized and whole brains were harvested for future biochemical analysis or perfused and brains collected for immunohistochemistry and stereological assessment of tyrosine hydroxylase-positive (TH+) cells remaining in the SNc. In study 1: n = 16 each group were included, and all underwent the behavioral analysis: n = 16, and for the stereology in the SNc, n = 8 each group was used. […]
In order to pharmacologically assess the degree of dopaminergic (DA) depletion in the lesioned side, animals were given amphetamine, an indirectly acting DA agonist and placed into a plexiglass cylinder (38 cm tall × 38 cm across) enclosed in an open field box ([Yue et al., 2011]). Dextro-amphetamine in sterile 0.9% saline (Sigma-Aldrich) was injected i.p. at 5 mg/kg, and rotations were recorded from above using Logitech HD web cameras connected to an Acer Aspire SWS-015 computer. An observer blinded to the groups counted rotations in both the ipsilateral and contralateral rotations for the entire 70 min period. […]

`[2H]C([2H])([2H])C([2H])(C([2H])([2H])[2H])[C@]([2H])(NC(=O)[C@H](C)NC(=O)[C@H](C)NC(=O)[C@H](CC(C)C)NC(=O)[C@H](Cc1ccc(O)cc1)NC(=O)[C@H](CCCCN)NC(=O)[C@H](CCCCN)NC(=O)[C@@]([2H])(NC(=O)[C@H](C)NC(=O)[C@H](CC(C)C)NC(=O)[C@H](CCC(N)=O)NC(=O)[C@H](CCCCN)NC(=O)[C@H](CCCNC(=N)N)NC(=O)[C@H](Cc1ccc(O)cc1)NC(=O)[C@H](CCCNC(=N)N)NC(=O)[C@H](CO)NC(=O)[C@H](Cc1ccc(O)cc1)NC(=O)[C@H](CO)NC(=O)[C@H](CC(=O)O)NC(=O)[C@@H](NC(=O)[C@H](Cc1ccccc1)NC(=O)[C@@H](NC(=O)CNC(=O)[C@H](CC(=O)O)NC(=O)[C@H](CO)NC(=O)[C@@H](N)Cc1c[nH]cn1)[C@@H](C)CC)[C@@H](C)O)C([2H])(C([2H])([2H])[2H])C([2H])([2H])[2H])C(=O)N[C@@H](CC(C)C)C(=O)N[C@@H](CO[C@@H]1O[C@H](CO)[C@@H](O[C@@H]2O[C@H](CO)[C@H](O)[C@H](O)[C@H]2O)[C@H](O)[C@H]1O)C(N)=O` [Compound 2LS98Lac] was tested. Which EC50 (human VPAC2 receptor) did it give?
Its EC50 is 0.193 µM.

What about the Emax (human VPAC2 receptor; CHO) of the same compound?
The Emax was 100%.

And the “Receptor selectivity ratio VPAC2/PAC1” value (human VPAC2 receptor; ratio of cAMP EC50 values)?
The value was 268.06.

What about the “Receptor selectivity ratio VPAC2/VPAC1” value (human VPAC2 receptor; ratio of cAMP EC50 values) of the same compound?
The value was 428.89.

And the “Cumulative contralateral amphetamine-induced rotations” value [1]?
The value was “significantly decreased”.
